One series concerns the target T1, mouse ABHD16A (Mus musculus, UniProt Q9Z1Q2).
T1 construct: full-length cDNA of human ABHD16A (Open Biosystems Catalog # MHS6278-202758315) or murine ABHD16A (Open Biosystems Catalog # MMM1013-202760516); host or cells: HEK293T, transient, pCMV-SPORT6
T1 sequence (Q9Z1Q2 1-558): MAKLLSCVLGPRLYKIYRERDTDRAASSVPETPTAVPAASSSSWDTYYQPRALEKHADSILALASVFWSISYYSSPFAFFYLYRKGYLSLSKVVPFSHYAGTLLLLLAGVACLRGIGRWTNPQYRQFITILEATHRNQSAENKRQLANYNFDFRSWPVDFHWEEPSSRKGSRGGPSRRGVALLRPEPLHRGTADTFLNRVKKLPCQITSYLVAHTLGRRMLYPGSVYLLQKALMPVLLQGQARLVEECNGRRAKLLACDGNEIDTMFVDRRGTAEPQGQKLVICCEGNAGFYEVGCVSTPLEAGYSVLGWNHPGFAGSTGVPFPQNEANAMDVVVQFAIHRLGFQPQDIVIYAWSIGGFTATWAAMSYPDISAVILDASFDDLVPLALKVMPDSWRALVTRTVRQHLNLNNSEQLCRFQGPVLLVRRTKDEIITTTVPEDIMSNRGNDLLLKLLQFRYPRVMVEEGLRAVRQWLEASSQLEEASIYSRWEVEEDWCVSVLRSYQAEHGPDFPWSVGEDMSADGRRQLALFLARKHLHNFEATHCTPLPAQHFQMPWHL
Briefly: PS substrate assay, mouse ABHD16A-transfected HEK293T proteome. Format: biochemical. The following applies: 20 μM, 30 min, 37° C.

In series [1] the target is T2, ABHD16A (Homo sapiens, UniProt O95870).
T2 sequence (O95870 1-558): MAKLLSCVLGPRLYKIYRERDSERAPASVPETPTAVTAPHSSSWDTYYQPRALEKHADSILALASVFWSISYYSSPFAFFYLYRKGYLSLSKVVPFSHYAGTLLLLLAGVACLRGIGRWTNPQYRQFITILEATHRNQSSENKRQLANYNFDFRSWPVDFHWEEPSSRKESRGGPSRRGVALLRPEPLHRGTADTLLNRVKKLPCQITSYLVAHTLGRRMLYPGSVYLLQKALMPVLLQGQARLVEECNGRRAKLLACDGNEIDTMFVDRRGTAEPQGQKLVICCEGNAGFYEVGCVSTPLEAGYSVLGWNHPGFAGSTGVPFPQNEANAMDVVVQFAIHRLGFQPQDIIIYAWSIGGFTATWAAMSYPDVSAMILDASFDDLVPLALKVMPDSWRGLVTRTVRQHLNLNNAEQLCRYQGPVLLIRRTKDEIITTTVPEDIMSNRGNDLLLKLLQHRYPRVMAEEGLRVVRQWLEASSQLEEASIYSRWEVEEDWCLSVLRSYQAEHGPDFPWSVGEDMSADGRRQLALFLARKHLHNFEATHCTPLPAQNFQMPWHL
Briefly: PS substrate assay, human ABHD16A-transfected HEK293T membrane proteome. The following applies: 20 μM, 30 min. Details: transiently transfected with 12 μg of the full-length cDNA of human ABHD16A (Open Biosystems Catalog # MHS6278-202758315); host or cells: HEK293T, transient, pCMV-SPORT6. Format: biochemical. The procedure:
HEK293T cells were grown to 40% confluence in a 15 cm dish in 25 mL of Dulbecco's modified Eagle medium (DMEM) supplemented with L-glutamine and 10% (vol/vol) FCS at 37° C. and 5% CO2 (vol/vol). The cells were transiently transfected with 12 μg of the full-length cDNA of human ABHD16A (Open Biosystems Catalog # MHS6278-202758315) or murine ABHD16A (Open Biosystems Catalog # MMM1013-202760516) in pCMV-SPORT6 vector using 40 μg polyethyleneimine “MAX” (MW 40,000) (PEI) (Polysciences Inc. Catalog #24765) as the transfection reagent as per manufacturer's instructions. As a “mock” control, an empty vector was transiently transfected. […] Protein concentration was measured using the Bio-Rad DC Protein Assay Kit as per manufacturer's protocol, and ABHD16A expression was confirmed using gel-based ABPP.
All the lipid species used in the lipid substrate hydrolysis assays were purchased from Avanti Polar Lipids Inc unless mentioned otherwise. […] All the data was collected and analyzed using the Agilent MassHunter Workstation software version B.04 using the Data Acquisition and Quantitative Analysis programs respectively. Measuring the area under the peak, and normalizing it to the internal standard quantified the product release for the lipid substrate hydrolysis assays. […] Some products from the substrate hydrolysis assays were detected in positive ion mode for qualitative identification. […]

In series [2] the target is T2, ABHD16A. Briefly: ABPP-SILAC, COLO205 cells treated in situ. Format: cell-based. Details: All ABPP-SILAC experiments were performed using the human COLO205 colon cancer cell line; endogenous in cells; host or cells: COLO205. As to conditions: COLO 205, 4 h.
A further series relates to ABHD16A−/− macrophages. Briefly: Lyso-PS and cytokines of ABHD16A−/− macrophages. Format: cell-based, mouse. As to conditions: basal or LPS stimulation; 1 μM, 4 h. As for the experimental part: Concentration of secreted lyso-PS (a) and cytokines IL-6 (b) and TNF-α (c) from thioglycollate-elicited peritoneal mouse macrophages from ABHD16A^−/− mice treated with inhibitor (KC01 or KC02, 1 μM, 4 h) followed by vehicle (PBS) or LPS (5 μg/mL) for 7 h is shown. Data represent mean±s.e.m. for four biological replicates. KC01 and KC02 have no effect on lyso-PS or cytokine secretion. Other secreted and cellular lipids in ABHD16A^−/− macrophages were also unchanged by KC01 or KC02 treatment (data not shown).
Peritoneal macrophages were elicited and harvested from mice according to the standard protocols available from LIPID MAPS (See http://www.lipidmaps.org/protocols/PP0000001400.pdf and http://www.lipidmaps.org/protocols/PP0000001500.pdf). After removal of the RBC lysis buffer, the macrophages were re-suspended in RPMI 1640 with 10% FCS and IX penicillin-streptomycin. Cell counts measured using a Bio-Rad TC10 automated cell counter, and equal numbers of cells (2×10^6) were plated in 10 cm tissue culture dishes. Macrophages were allowed to adhere to the plates for 2 h at 37° C. and 5% CO2. […] Macrophages were then stimulated with lipopolysaccharide (5 μg/mL) for 7 hours. Sterile PBS was the vehicle in these studies. Four milliliters of the media was used for measuring secreted metabolites, and 0.5 mL was used for cytokine measurements.

For series [3], the system named is serine hydrolase targets from mouse brain and COLO205 membrane proteomes. Briefly: Competitive gel-based ABPP of β-lactone probe set. Format: biochemical. As to conditions: 25 μM, 30 min, 37° C., then FP-rhodamine. The procedure:
Competitive gel-based ABPP were performed as described previously with slight modifications. See Adibekian et al. Nat. Chem. Biol. (2011) 7, 469. […] The reactions were quenched by adding 40 μL of 4×SDS-PAGE loading buffer for reducing gels, followed by boiling for 2 minutes. All samples were visualized in-gel using an FMBio II Multiview flatbed fluorescence scanner (Hitachi). The fluorescence from rhodamine is presented in gray scale.

The target in a further series is T3, CES2 (Homo sapiens, UniProt O00748).
T3 construct: All ABPP-SILAC experiments were performed using the human COLO205 colon cancer cell line; endogenous in cells; host or cells: COLO205
Briefly: ABPP-SILAC of COLO205 membrane proteome treated with compound 8b. Format: biochemical. As to conditions: 30 min.

The next series has as its target T4, FAAH (Homo sapiens, UniProt O00519).
T4 construct: All ABPP-SILAC experiments were performed using the human COLO205 colon cancer cell line; endogenous in cells; host or cells: COLO205
Described as above. Format: biochemical. The following applies: 30 min.

A further series deals with T5, FASN (Homo sapiens, UniProt P49327).
T5 construct: All ABPP-SILAC experiments were performed using the human COLO205 colon cancer cell line; endogenous in cells; host or cells: COLO205
The description is as above. Format: biochemical. The following applies: 30 min.

The target in series [4] is T2, ABHD16A. The series is described as above. Format: biochemical. Details: All ABPP-SILAC experiments were performed using the human COLO205 colon cancer cell line; endogenous in cells; host or cells: COLO205. The following applies: 30 min.
A further series addresses T6, ABHD2 (Homo sapiens, UniProt P08910).
T6 construct: All ABPP-SILAC experiments were performed using the human COLO205 colon cancer cell line; endogenous in cells; host or cells: COLO205
The series is described as above. Format: biochemical. As to conditions: 30 min.

The target in another series is T7, PNPLA4 (Homo sapiens, UniProt P41247).
T7 construct: All ABPP-SILAC experiments were performed using the human COLO205 colon cancer cell line; endogenous in cells; host or cells: COLO205
Described as above. Format: biochemical. As to conditions: 30 min.

The next series has as its target T8, ABHD3 (Homo sapiens, UniProt Q8WU67).
T8 construct: All ABPP-SILAC experiments were performed using the human COLO205 colon cancer cell line; endogenous in cells; host or cells: COLO205
Described as above. Format: biochemical. The following applies: 30 min.

For another series, the target named is T9, ABHD12 (Homo sapiens, UniProt Q8N2K0).
T9 construct: All ABPP-SILAC experiments were performed using the human COLO205 colon cancer cell line; endogenous in cells; host or cells: COLO205
Described as above. Format: biochemical. As to conditions: 30 min.

What is called melting point is the temperature of the solid-liquid transition. In general, inhibition refers to the relative decrease from the control value, in per cent.

T5 sequence (P49327 whole entry): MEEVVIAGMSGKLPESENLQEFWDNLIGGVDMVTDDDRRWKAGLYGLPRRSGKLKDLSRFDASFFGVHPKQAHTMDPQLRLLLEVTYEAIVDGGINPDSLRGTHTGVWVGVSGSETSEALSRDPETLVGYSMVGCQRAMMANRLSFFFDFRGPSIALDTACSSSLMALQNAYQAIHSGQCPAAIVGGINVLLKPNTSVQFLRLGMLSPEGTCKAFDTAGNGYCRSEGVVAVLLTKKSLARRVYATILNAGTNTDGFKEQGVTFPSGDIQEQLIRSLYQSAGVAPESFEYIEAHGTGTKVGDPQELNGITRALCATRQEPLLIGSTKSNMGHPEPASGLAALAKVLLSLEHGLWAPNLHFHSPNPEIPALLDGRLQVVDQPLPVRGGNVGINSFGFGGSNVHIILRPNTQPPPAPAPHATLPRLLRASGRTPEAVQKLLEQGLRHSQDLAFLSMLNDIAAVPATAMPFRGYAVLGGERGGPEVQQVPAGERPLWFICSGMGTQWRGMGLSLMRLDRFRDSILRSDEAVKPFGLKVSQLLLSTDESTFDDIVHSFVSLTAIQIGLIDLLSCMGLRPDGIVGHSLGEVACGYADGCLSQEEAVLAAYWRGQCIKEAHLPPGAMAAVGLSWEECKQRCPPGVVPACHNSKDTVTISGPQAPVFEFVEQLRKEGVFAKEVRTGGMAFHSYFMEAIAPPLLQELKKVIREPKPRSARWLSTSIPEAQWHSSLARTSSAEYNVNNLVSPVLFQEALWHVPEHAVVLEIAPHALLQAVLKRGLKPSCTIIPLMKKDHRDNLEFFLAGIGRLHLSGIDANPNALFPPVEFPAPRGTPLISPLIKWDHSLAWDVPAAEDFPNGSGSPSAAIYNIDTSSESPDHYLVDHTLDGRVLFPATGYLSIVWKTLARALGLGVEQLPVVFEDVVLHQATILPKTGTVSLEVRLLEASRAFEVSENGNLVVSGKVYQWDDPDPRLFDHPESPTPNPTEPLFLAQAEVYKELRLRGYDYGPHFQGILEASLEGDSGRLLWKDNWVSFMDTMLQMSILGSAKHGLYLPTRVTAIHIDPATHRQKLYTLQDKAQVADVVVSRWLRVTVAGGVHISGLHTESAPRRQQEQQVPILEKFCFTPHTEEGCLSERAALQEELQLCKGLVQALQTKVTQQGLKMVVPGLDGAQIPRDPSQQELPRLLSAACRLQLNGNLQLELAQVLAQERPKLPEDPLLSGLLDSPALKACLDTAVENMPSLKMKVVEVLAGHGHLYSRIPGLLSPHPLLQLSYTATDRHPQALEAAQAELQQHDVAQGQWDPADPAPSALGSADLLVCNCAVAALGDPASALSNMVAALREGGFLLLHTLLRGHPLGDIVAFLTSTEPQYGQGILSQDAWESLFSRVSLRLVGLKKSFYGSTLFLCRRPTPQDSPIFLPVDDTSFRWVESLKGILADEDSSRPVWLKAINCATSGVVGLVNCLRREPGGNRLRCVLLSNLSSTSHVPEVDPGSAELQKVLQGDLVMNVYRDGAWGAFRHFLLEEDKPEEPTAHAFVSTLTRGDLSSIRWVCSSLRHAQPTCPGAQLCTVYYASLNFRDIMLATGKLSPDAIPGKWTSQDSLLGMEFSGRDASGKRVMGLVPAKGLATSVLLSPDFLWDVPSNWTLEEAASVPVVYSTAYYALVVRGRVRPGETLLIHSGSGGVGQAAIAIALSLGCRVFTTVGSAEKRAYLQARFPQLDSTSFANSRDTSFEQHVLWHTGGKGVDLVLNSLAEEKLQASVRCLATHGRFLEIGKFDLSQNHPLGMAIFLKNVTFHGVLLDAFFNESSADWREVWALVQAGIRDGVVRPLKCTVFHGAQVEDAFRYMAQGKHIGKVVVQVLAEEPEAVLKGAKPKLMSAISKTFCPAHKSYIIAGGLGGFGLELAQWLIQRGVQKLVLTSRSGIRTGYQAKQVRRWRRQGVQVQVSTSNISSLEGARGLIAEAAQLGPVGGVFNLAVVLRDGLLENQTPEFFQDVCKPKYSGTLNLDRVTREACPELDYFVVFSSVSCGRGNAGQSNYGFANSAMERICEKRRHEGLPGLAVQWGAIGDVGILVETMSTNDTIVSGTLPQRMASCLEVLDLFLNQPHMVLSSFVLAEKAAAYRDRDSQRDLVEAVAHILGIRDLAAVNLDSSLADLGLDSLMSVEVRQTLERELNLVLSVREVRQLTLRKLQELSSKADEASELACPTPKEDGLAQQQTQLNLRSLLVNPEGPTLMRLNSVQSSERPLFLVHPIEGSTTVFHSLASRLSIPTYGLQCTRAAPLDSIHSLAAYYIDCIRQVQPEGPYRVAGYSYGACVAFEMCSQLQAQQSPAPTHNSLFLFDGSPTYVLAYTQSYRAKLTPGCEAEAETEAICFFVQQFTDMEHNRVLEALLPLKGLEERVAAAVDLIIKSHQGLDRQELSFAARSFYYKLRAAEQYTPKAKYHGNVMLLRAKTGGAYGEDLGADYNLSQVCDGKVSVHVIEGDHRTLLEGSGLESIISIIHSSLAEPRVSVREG
T9 sequence (Q8N2K0 whole entry): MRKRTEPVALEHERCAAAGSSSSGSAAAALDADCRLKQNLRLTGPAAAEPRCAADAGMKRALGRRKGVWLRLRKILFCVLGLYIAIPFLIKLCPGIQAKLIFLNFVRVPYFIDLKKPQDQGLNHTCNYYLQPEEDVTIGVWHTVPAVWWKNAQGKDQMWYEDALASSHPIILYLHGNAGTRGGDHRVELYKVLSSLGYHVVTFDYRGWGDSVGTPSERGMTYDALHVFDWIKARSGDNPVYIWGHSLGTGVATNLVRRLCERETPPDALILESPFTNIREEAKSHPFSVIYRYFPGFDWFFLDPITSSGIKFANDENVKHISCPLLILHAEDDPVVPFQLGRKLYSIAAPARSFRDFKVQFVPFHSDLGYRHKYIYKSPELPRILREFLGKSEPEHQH
T6 sequence (P08910 whole entry): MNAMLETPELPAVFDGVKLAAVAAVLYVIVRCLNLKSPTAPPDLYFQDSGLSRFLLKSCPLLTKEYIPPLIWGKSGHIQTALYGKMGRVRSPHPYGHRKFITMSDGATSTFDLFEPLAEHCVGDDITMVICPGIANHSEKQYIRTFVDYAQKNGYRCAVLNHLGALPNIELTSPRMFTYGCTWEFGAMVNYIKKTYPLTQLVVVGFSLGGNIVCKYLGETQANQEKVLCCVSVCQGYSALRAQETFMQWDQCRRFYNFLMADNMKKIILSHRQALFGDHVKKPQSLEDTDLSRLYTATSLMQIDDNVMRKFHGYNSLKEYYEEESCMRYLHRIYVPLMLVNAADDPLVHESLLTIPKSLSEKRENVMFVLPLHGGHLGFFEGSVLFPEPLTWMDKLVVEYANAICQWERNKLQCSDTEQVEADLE
T7 sequence (P41247 whole entry): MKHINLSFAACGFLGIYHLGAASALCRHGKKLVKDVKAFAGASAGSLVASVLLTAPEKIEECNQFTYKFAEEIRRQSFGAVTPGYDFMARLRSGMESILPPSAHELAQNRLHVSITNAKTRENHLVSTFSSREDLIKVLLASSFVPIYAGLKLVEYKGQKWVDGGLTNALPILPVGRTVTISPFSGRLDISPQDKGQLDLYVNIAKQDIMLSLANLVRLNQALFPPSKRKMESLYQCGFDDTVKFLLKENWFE
T3 sequence (O00748 27-559): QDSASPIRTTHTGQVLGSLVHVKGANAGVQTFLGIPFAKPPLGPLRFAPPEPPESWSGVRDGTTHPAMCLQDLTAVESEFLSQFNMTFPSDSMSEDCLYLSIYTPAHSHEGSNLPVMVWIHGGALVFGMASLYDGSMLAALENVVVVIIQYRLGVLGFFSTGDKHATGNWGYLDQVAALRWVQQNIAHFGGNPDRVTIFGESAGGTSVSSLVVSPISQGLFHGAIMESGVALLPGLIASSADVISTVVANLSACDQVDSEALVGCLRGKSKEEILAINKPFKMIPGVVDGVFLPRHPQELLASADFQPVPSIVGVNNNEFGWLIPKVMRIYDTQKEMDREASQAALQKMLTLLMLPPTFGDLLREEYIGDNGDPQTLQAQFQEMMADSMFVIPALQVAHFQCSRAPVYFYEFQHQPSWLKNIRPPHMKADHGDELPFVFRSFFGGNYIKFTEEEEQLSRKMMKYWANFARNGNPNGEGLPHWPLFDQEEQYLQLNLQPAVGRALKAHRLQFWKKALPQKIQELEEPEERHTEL
T4 sequence (O00519 whole entry): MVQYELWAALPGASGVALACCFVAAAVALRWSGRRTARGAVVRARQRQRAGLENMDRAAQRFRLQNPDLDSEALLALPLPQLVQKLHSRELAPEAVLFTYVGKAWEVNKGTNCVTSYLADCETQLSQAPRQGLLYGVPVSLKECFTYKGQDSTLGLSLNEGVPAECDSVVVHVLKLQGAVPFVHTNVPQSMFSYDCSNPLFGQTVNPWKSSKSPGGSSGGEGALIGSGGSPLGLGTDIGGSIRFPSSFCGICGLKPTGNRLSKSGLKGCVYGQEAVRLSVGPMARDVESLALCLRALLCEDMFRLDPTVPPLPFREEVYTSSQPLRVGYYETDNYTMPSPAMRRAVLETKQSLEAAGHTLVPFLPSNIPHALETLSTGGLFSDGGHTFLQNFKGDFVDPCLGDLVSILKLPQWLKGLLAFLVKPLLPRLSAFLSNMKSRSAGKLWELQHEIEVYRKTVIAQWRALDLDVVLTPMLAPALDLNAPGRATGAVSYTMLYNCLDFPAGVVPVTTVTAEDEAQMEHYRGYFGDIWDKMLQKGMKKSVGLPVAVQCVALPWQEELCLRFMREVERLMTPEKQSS

For the compound `CCCCCCCCCCC[C@@H](C[C@@H]1OC(=O)[C@H]1CCCCCC)OC(=O)[C@H](CC(C)C)NC=O` [THL, tetrahydrolipstatin, reference compound], the “heightened PS lipase activity of ABHD16A-transfected proteome” value on mouse ABHD16A and at ABHD16A [1] was “blocked” in each case.
`CCCCCCCCCCCCCC1OC(=O)C1CCCCCC(N)=O` (mixture of isomers) [Compound 17, (cis/trans)-6-(2-Oxo-4-tridecyloxetan-3-yl)hexanamide] yielded a melting point of 98 to 101 °C.
The compound `CCCCCCCCCCCCCC1OC(=O)/C1=C\c1ccccc1` (stereo not drawn) [Compound 3, (Z)-3-benzylidene-4-tridecyloxetan-2-one] gave a melting point of 61 to 62 °C.
For the compound `NC(=O)CCCCC=C1C(=O)OC1CCc1ccccc1` (mixture of isomers) [KC02, (E/Z)-6-(2-Oxo-4-(2-phenethyl)oxetan-3-ylidene)hexanamide], at ABHD16A [2], the inhibition at 1 µM is under 30%. Further, the “cellular or secreted lyso-PS, other lipids, secreted IL-6 and TNF-α” value with ABHD16A−/− macrophages is “No changes”.
Consider `CCCCCCCCCCCCCC1OC(=O)/C1=C\CCCCc1ccccc1` (stereo not drawn) [Compound 4, (Z)-3-(5-phenylpentylidene)-4-tridecyloxetan-2-one], for which the melting point fell in the range of 34 to 35 °C.
Compound `NC(=O)CCCC/C=C1\C(=O)OC1CCCCCCCCCc1ccccc1` (stereo not drawn) [Compound 15, (Z)-6-(2-Oxo-4-(9-phenylnonyl)oxetan-3-ylidene)hexanamide] returned a melting point of 93 to 94 °C.
Compound `CCCCCCCCCCCCCC1OC(=O)/C1=C\CCCCCS(N)(=O)=O` (stereo not drawn) [Compound 16, (Z)-6-(2-Oxo-4-tridecyloxetan-3-ylidene)hexane-1-sulfonamide] yielded a melting point of 79 to 80 °C.
Turning to `CCCCCCCCCCCCC[C@@H]1OC(=O)[C@H]1Cc1ccccc1` (relative stereo) [Compound 8b, (trans)-3-benzyl-4-tridecyloxetan-2-one], in series [3], the “reactivity / inhibition of serine hydrolase activities” value is listed as “broadest reactivity”. The inhibition at 25 µM was over 90% on CES2; over 90% on FAAH; 70 to 90% at FASN; over 90% on ABHD16A [4]; over 90% on ABHD2; over 90% on PNPLA4. The inhibition at 25 µM at ABHD3 is 70 to 90%; at ABHD12, over 90%.

The values are drawn from patent US20170313669A1, “LACTONE COMPOUNDS AND METHODS OF MAKING AND USING SAME” (THE SCRIPPS RESEARCH INSTITUTE, priority 2015, published 2017).
